Experimental data as given in patent publication USRE29244E, “Coccidiostats” (priority 1976, dated 1977).
Where two headings read alike, the source gives them in different places.

Columns and labels:
[1] = system: Bacillus simplex; assay: Antimicrobial spectrum, plate assay; assay type: cell-based
Description: (§1) The following table summarizes the antimicrobial spectrum of antibiotic X-537A:
(§2) Antimicrobial spectrum of antibiotic X-537A
(§3) Test organism: Plate units per mg.
(§4) The antibiotic can be prepared by growing the Streptomyces organisms in an aerated submerged culture. This can be done in either a shaken flask or in 50-1,000 gallon stainless steel and iron fermentation tanks. The broths are adjusted to a pH which is about neutral, i.e., 6.5-7.5 prior to be sterilized and are then incubated at slightly elevated temperatures, e.g., about 27° to 30° C., after being inoculated with spore suspensions or vegetative growth. The reaction broth is then filtered and the active material is extracted with a suitable solvent, preferably methanol, n-butanol or butyl acetate. The antibiotic activity is followed by cup-plate agar diffusion assay in which the test organism Bacillus E is employed. In general, the concentration of antibiotic required to produce an inhibition zone of 20-22 mm. in diameter with any of the test organisms is considered to be 1 unit per ml. Whole broths are diluted for assay in 1% phosphate buffer, pH 6.0.

[2] = system: Staphylococcus aureus; assay: Antimicrobial spectrum, plate assay; assay type: cell-based
Description: as §1, §2, §3, §4

[3] = system: Sarcina lutea; assay: Antimicrobial spectrum, plate assay; assay type: cell-based
Description: as §1, §2, §3, §4

[4] = system: Scopulariopsis brevicaulis; assay: Antimicrobial spectrum, plate assay; assay type: cell-based
Description: as §1, §2, §3, §4

[5] = system: Bacillus cereus; assay: Antimicrobial spectrum, plate assay; assay type: cell-based
Description: as §1, §2, §3, §4

[6] = system: Mycobacterium phlei; assay: Antimicrobial spectrum, plate assay; assay type: cell-based
Description: as §1, §2, §3, §4

[7] = system: Bacillus mesentericus; assay: Antimicrobial spectrum, plate assay; assay type: cell-based
Description: as §1, §2, §3, §4

[8] = system: Bacillus E; assay: Antimicrobial spectrum, plate assay; assay type: cell-based
Description: as §1, §2, §3, §4

[9] = system: Corynebacterium simplex; assay: Antimicrobial spectrum, plate assay; assay type: cell-based
Description: as §1, §2, §3, §4

[10] = system: Saccharomyces cerevisiac; assay: Antimicrobial spectrum, plate assay; assay type: cell-based
Description: as §1, §2, §3, §4

[11] = system: mixtures of E. tenella, E. necatrix, E. acervulina, E. brunetti, E. maxima, E. mivati; assay: Multiple Eimeria infections in chickens; assay type: in vivo, Eimeria (mixture; in chickens); settings: for Average degree of infection: <2.5 significant; for Weight gain: uninfected control 100
Description: (§5) Test method.--This test utilizes ten chickens per drug group. Ten chickens are employed as a weight control and ten chickens as an infected control. The drug is given 48 hours in advance of the infection. One gm. of the test drug is mixed in a mechanical mixer with a sufficient amount of chicken feed to result in the desired dosage. The infection consists of approximately 200,000 oocysts given orally by pipette. The tests lasts for eleven days and then the surviving birds are autopsied and examined for gross lesions in the ceca. The test birds are rated according to the number of survivors and the number of cecal lesions. The results are expressed as average degree of infection (A.D.I.). An average degree of infection of less than 2.5 is considered significant.
(B) Multiple Eimeria infections in chickens
Test method.--The test method is the same as for Eimeria tenella. The multiple Eimeria infections tested herein are mixtures of E. tenella, E. necatrix, E. acervulina, E. brunetti, E. maxima, E. mivati infections.

[12] = system: mycobacteria; assay: In vitro antibacterial activity; assay type: cell-based
[13] = system: Eimeria tenella; assay: Eimeria tenella infection in laboratory chickens; assay type: in vivo; design: Average degree of infection: scale not given here; settings: for Average degree of infection: <2.5 significant; for Weight gain: uninfected control 100
Description: (A) Eimeria tanella infection in laboratory chickens
as §5

[14] = Toxic dosage in mice; assay type: in vivo; settings: for MTD: mouse, in vivo, read-out: Tolerated dose
Source text: The toxic dosage of the antibiotic as tested in mice and designated as the lethal dose is as follows: […]

[15] = system: gram-negative bacteria; assay: In vitro antibacterial activity; assay type: cell-based
[16] = system: gram-positive bacteria; assay: In vitro antibacterial activity; assay type: cell-based
[17] = system: Gram-negatives; assay: Antimicrobial spectrum, plate assay; assay type: cell-based; settings: Gram-negatives: Pseudomonas acruginosa, Aerobacillus polymyxa, Escherichia coli
Source text: as §1, §2, §3
*These were Pseudomonas acruginosa, Aerobacillus polymyxa and Escherichia
as §4

[18] = Continuous feeding of chicks for nine weeks; assay type: in vivo, chicken
Source text: At 0.025%, growth is reduced, feed conversion impaired and 25% mortality occurs.

CCC(C(=O)C(C)C(O)C(C)CCc1ccc(C)c(O)c1C(=O)O)C1OC(CC)(C2CCC(O)(CC)C(C)O2)CC1C (centres unmarked) [antibiotic X-537A]
Antimicrobial activity [1]: 20 Plate units per mg. | Antimicrobial activity [2]: 20 Plate units per mg. | Antimicrobial activity [3]: 500 Plate units per mg. | Antimicrobial activity [4]: 0 Plate units per mg. | Antimicrobial activity [5]: 120 Plate units per mg. | Antimicrobial activity [6]: 20 Plate units per mg. | Antimicrobial activity [7]: 50 Plate units per mg. | Antimicrobial activity ([8]; Bacillus E): 800 Plate units per mg. | Bacillus E assay ([8]; crystalline material from petroleum ether (contained sodium)): 500 E units per mg. | Bacillus E assay ([8]; free acid recrystallized from ethanol): 800 E units per mg. | Antimicrobial activity [9]: 20 Plate units per mg. | Antimicrobial activity [10]: 0 Plate units per mg. | Percent mortality ([11]; 0.00312% in feed): 0% | Average degree of infection ([11]; 0.00312% in feed): 0.9 | Weight gain ([11]; 0.00312% in feed): 105% | Percent mortality ([11]; 0.00625% in feed): 0% | Average degree of infection ([11]; 0.00625% in feed): 0.0 | Weight gain ([11]; 0.00625% in feed): 108% | Efficiency of conversion of feed to weight gain ([11]; chickens): greater than expected | Effectiveness in treating multiple coccidiosis infections ([11]; in vivo): effective | Activity in vitro against mycobacteria [12]: active | Percent mortality ([13]; Test I, 0.00312% in feed): 0% | Average degree of infection ([13]; Test I, 0.00312% in feed): 2.2 | Weight gain ([13]; Test I, 0.00312% in feed): 85% | Percent mortality ([13]; Test I, 0.00625% in feed): 0% | Average degree of infection ([13]; Test I, 0.00625% in feed): 0.4 | Weight gain ([13]; Test I, 0.00625% in feed): 92% | Percent mortality ([13]; Test II, 0.001% in feed): 15% | Average degree of infection ([13]; Test II, 0.001% in feed): 2.8 | Weight gain ([13]; Test II, 0.001% in feed): 80% | Percent mortality ([13]; Test II, 0.002% in feed): 15% | Average degree of infection ([13]; Test II, 0.002% in feed): 2.6 | Weight gain ([13]; Test II, 0.002% in feed): 83% | Percent mortality ([13]; Test II, 0.003% in feed): 5% | Average degree of infection ([13]; Test II, 0.003% in feed): 2.2 | Weight gain ([13]; Test II, 0.003% in feed): 85% | Percent mortality ([13]; Test II, 0.004% in feed): 15% | Average degree of infection ([13]; Test II, 0.004% in feed): 1.7 | Weight gain ([13]; Test II, 0.004% in feed): 87% | Percent mortality ([13]; Test II, 0.005% in feed): 5% | Average degree of infection ([13]; Test II, 0.005% in feed): 0.8 | Weight gain ([13]; Test II, 0.005% in feed): 94% | Percent mortality ([13]; Test II, 0.006% in feed): 0% | Average degree of infection ([13]; Test II, 0.006% in feed): 0.1 | Weight gain ([13]; Test II, 0.006% in feed): 95% | Average degree of infection ([13]; Test III, 0.003% in feed): 1.7 | Weight gain ([13]; Test III, 0.003% in feed): 79% | Average degree of infection ([13]; Test III, 0.004% in feed): 1.1 | Weight gain ([13]; Test III, 0.004% in feed): 81% | Average degree of infection ([13]; Test III, 0.005% in feed): 0.5 | Weight gain ([13]; Test III, 0.005% in feed): 98% | Average degree of infection ([13]; Test III, 0.006% in feed): 0.2 | Weight gain ([13]; Test III, 0.006% in feed): 97% | Effectiveness in treatment of coccidiosis ([13]; at the preferred dosages illustrated): effective | Effect on conversion of feed to weight gain ([13]; used as a coccidiostat): does not substantially adversely affect | Lethal dose ([14]; intraperitoneal): 62.5 mg/kg | MTD ([14]; ip, intraperitoneal): 50 mg/kg | MTD ([14]; oral): 62.5 mg/kg | MTD ([14]; sc, subcutaneous): 62.5 mg/kg | Lethal dose ([14]; oral): 125 mg/kg | Lethal dose ([14]; subcutaneous): 125 mg/kg | Activity in vitro against gram-negative bacteria [15]: inactive | Activity in vitro against gram-positive bacteria [16]: active | Antimicrobial activity [17]: 0 Plate units per mg. | Feed conversion ([18]; 0.025% in feed): impaired | Growth ([18]; 0.025% in feed): reduced | mortality at 1512 h ([18]; chicken, in vivo, po, 0.025% in feed): 25% | Adverse effects on performance (growth, feed efficiency and mortality) ([18]; up to 0.0125% by weight in feed, nine weeks): no adverse effects
